Reference: patent US20160151305A1, “AGENT OR METHOD FOR TREATEMENT AND/OR PREVENTION OF ACCELERATED ENERGY EXPENDITURE AND/OR DIMINISHED ENERGY EXPENDITURE FUNCTIONALITY” (MATSUTANI CHEMICAL INDUSTRY CO., LTD., priority 2013, published 2016)
“Also recorded” adds a separate entry of the source.

What was measured:
[1] = Sensory test by continuous administration of D-psicose in humans (interview); type: in vivo; conditions: for Changes: Body became easier to move (number of subjects) / Changes: Body felt lighter (number of subjects) / Changes: Body felt warmer (number of subjects) / Changes: Felt better (number of subjects) / Changes: Felt less fatigue (number of subjects) / Changes: No change (number of subjects): 5 healthy humans, once a day for 2 weeks, sample A = D-psicose 1.0 g, B = 2.5 g, C = 5.0 g
Protocol: The test was conducted for 5 healthy individuals with no smoking habit (average age of 35.0; 3 males and 2 females). Prior to the experiment, the subjects were fully informed of the experiment contents in line with the guidelines of the Declaration of Helsinki, and the experiment was conducted with the informed consent of all subjects. The subjects were each asked to continuously take sample A (D-psicose, 1.0 g), once a day for 2 weeks. The subjects were then interviewed to see if there was any physical changes. After 1 week, the same subjects were continuously given sample B (D-psicose, 2.5 g) for 2 weeks in the same manner as for sample A, and were interviewed again. The same procedure was repeated after 1 week by continuously giving sample C (D-psicose, 5.0 g) to the same subjects, followed by an interview.

[2] = Human tests, single D-psicose administration with pure carbohydrate food, energy expenditure; type: in vivo; conditions: humans
[3] = Metabolism test by single administration of D-psicose in humans (indirect calorimetry of breath); type: in vivo
Protocol: Effects of single administration of D-psicose on energy expenditure, carbohydrate combustion, and lipid combustion were examined in humans. Energy metabolism was calculated by indirect calorimetry from measurements of subjects' breath (oxygen consumption and carbon dioxide discharge). The test was conducted by a single-blinded crossover study of two groups of 6 healthy individuals with no smoking habit (average age of 34.8; 3 males and 3 females; average BMI 21.4 kg/m^2). Prior to the experiment, the subjects were fully informed of the experiment contents in line with the guidelines of the Declaration of Helsinki, and the experiment was conducted with the informed consent of all subjects. The subjects were fasted for 12 hours before starting the test, and were each given a test solution (150 ml) prepared by adding 5 g of D-psicose, or a test solution (150 ml) prepared by adding 10 mg of high sweetener aspartame to provide the same sweetness as control food. The concentration of the test solution was 3.3% for the D-psicose group, and 0.005% for the aspartame group. After giving the test solution, the subjects were given breakfast (hamburg steak with rice; total calorie: 571 kcal; protein 13.4%, lipid 25.3%, carbohydrate 61.3%). After the breakfast, the subjects were rested on the bed for 20 min in the resting supine position to acclimate to the environment, and the breath was measured with an Aero Monitor AE-310S (Minato Medical Science) connected to a breathing hood. The measurement was ended after 4 hours from the breakfast. During the measurement, the oxygen consumption and the carbon dioxide discharge of each subject were recorded every minute, and energy expenditure, carbohydrate combustion, and lipid combustion were calculated from the measured values using the Elwyn energy equation. Throughout the breath measurement, the subjects were rested on the bed in the resting supine position, and were kept awake and fasted. The results were divided by subject ‘ s body weights, and were represented as mean values and standard deviation. […]

[4] = Metabolism test by long-term administration of D-psicose in rats (hourly energy expenditure); type: in vivo, male Wistar rats; conditions: feed with 50.0 g/kg D-psicose + sucrose vs sucrose group, after 5 to 7 weeks, at hour 11 in the light period and hour 5 and 6 in the dark period, FIG. 2
Excerpt: Effects of long-term administration of D-psicose on energy metabolism were examined using male Wistar rats (3 weeks of age; purchased from Japan SLC). The rats were preliminarily maintained for 1 week with a commercially available powder feed (product name MF; Oriental Yeast Co., Ltd.), and were divided into 2 groups so as to be uniform in body weight upon measuring the body weight (each group contained eight rats). The two groups are a sucrose administered group, and a sucrose+D-psicose administered group.
The two groups of rats were allowed free access to experiment feed (Table 2) and water, and maintained under specific conditions (temperature 22±1° C., humidity 58±2%, light period 8:00 to 20:00, dark period 20:00 to 8:00 next morning). The energy metabolism was measured 5 to 7 weeks after the experiment feed was given. […] The rat breath and the room air were collected into a Douglas bag (Fukuda Sangyo) at 1-hour intervals, and the oxygen and carbon dioxide concentrations were measured with a gas concentration analyzers G-102 and LX-710 (Iijima Electronics Corporation) for 24 hours. The amounts of oxygen consumed by the rat, and the amount of generated carbon dioxide were calculated from the oxygen concentration and the carbon dioxide concentration in the breath, and the oxygen concentration and the carbon dioxide concentration in room air. […]

[5] = Metabolism test by single oral administration of D-psicose in rats (indirect calorimetry); type: in vivo, male Sprague-Dawley rats; conditions: glucose+fructose+psicose (+Psi group) vs glucose+fructose (-Psi group), mean value every 12 minutes, FIG. 1
Excerpt: Effects of single oral administration of D-psicose on energy metabolism were examined using male Sprague-Dawley rats (7 weeks of age; purchased from CLEA Japan). The rats were preliminarily maintained for 1 week with a commercially available solid feed (CE-2; CLEA Japan), and were divided into 3 groups so as to be uniform in body weight upon measuring the body weight (each group contained eight rats).
The rats were individually put in a cage of a respiratory metabolism measurement system for small animals MK-5000 (Muromachi Kikai Co., Ltd.) at 16 o'clock on the day before a calorimetric test. The rats were measured by indirect calorimetry, and acclimated in the dark without food (dark period).
The rats were placed under a light at 10 o'clock next morning (light period). […] The solution concentrations are different to match total energy amounts. […] For the rest of the experiment, the rats were allowed access to only purified water, and the calorific value was continuously measured until 10 o'clock next day at 23° C. under light.
Resting energy metabolism (resting energy expenditure; hereinafter, “REE”, kcal/min) was calculated by using the Weir equation, and the result was divided by body weight (hereinafter, “BW”, in kg). The mean of measured values from 12 min to 60 min before the administration was regarded as a value at hour 0, and amounts of change were calculated over time. […]

[6] = 5 g D-psicose immediately before lipid-containing breakfast vs aspartame control, 20 minutes to 4 hours from breakfast, FIG. 3

With O=C(CO)[C@H](O)[C@H](O)[C@H](O)CO [A, D-psicose] the “Changes: Body became easier to move (number of subjects)” value (“Changes: Body became easier to move” below) [1] was 1, the “Changes: Body felt lighter (number of subjects)” value (“Changes: Body felt lighter” for short) [1] was 1 and the “Changes: Body felt warmer (number of subjects)” value (“Changes: Body felt warmer” for short) [1] was 1. For the same molecule, the “Changes: Felt better (number of subjects)” value (“Changes: Felt better” below) [1] was 1, the “Changes: Felt less fatigue (number of subjects)” value (from here on “Changes: Felt less fatigue”) [1] was 1 and the “Changes: No change (number of subjects)” value [1] was 4. The “interview result on repeat test” value ([1]; humans, sample A (D-psicose 1.0 g) again for 2 weeks, 1 week after testing with sample C) was “produced the same result”.
In the case of O=C(CO)[C@H](O)[C@H](O)[C@H](O)CO [B, D-psicose], the “Changes: Body became easier to move” value [1] is reported as 2, the “Changes: Body felt lighter” value [1] is reported as 3 and the “Changes: Body felt warmer” value [1] is reported as 3. For the same molecule, the “Changes: Felt better” value [1] was 2, the “Changes: Felt less fatigue” value [1] was 2 and the “Changes: No change (number of subjects)” value [1] was 0.
For O=C(CO)[C@H](O)[C@H](O)[C@H](O)CO [D-psicose], the “effect on energy expenditure” value [2] was “did not have effect on energy expenditure”, the “energy expenditure (REE) per body weight” value [3, 6] was “significantly increased” and the “lipid combustion (FEE) per body weight” value [3, 6] was “significantly increased”. For the same molecule, the “energy metabolism result at lower dose” value ([3]; single D-psicose dose 2.4 g) was “did not show any difference”, the “physical changes reported in interview” value ([1]; humans, continuous intake of 2.5 g or more of D-psicose for 2 weeks) was “The subjects all experienced some changes; also recorded: increase or improve body temperature and other sensations” and the “hourly energy expenditure per measured rat weight” value [4] was “significantly higher”. The “AREE/BW (change of resting energy expenditure per body weight, water group subtracted)” value [5] was “no significant difference”.
In the case of O=C(CO)[C@H](O)[C@H](O)[C@H](O)CO [C, D-psicose], the “Changes: Body became easier to move” value [1] is reported as 3, the “Changes: Body felt lighter” value [1] is reported as 5 and the “Changes: Body felt warmer” value [1] is reported as 5. For the same molecule, the “Changes: Felt better” value [1] was 2, the “Changes: Felt less fatigue” value [1] was 2 and the “Changes: No change (number of subjects)” value [1] was 0.
